# Tested on: Lysozyme
# Experiment: Inhibition of Maillard reaction: suppression of lysozyme dimer formation (lysozyme + fructose, SDS-PAGE)
# Assay type: biochemical
# Conditions: inhibition ratio of test compound to aminoguanidine (positive control); lysozyme 10 mg/ml, fructose 100 mM, 0.2M sodium phosphate pH 7.4, 37° C., 3 days; dimer amount by SDS-PAGE
# Protocol: Lysozyme and fructose were dissolved in a buffer solution of 0.2M sodium phosphate (pH 7.4) to respectively give concentrations of 10 mg/ml and 100 mM. After incubating at 37° C. for 3 days, a definite amount of the mixture was taken out and electrophoresed with the use of SDS-PAGE. After the completion of the electrophoresis, the gel was stained with 0.2% Coomassie Brilliant Blue R-250 and the amount of the dimer thus formed was determined.
# Each of the test compounds was added before the initiation of the incubation and the effect of suppressing the formation of the dimer was examined at various concentrations, whereby the IC50 value was obtained. As a positive control, aminoguanidine, which is a known glycation inhibitor, was employed and the inhibition ratio of the test compound to aminoguanidine (IC50 of aminoguanidine/IC50 of test compound) was calculated.
row,SMILES,IC50 of aminoguanidine/IC50 of test compound
1,"COc1ccc(NC(=O)CC2SC(=NN=C(C)C)NC2=O)c(C)c1 (stereo not shown) [Test compound 116, 2-Isopropylidenehydrazono-5-[N-(4-methoxy-2-methylphenyl)carbamoylmethyl]thiazolidin-4-one]",7.3
2,"CC(C)=NN=C1NC(=O)C(CC(=O)Nc2ccc(F)cc2C(=O)O)S1 (stereo not shown) [Test compound 117, 5-[N-(2-carboxy-4-fluorophenyl)carbamoylmethyl]-2-isopropylidenehydrazonothiazolidin-4-one]",7.0
3,"COC(=O)c1c(F)cccc1NC(=O)CC1SC(=NN=C(C)C)NC1=O (stereo not shown) [Test compound 118, 5-[N-(3-fluoro-2-methoxycarbonylphenyl)carbamoylmethyl]-2-isopropylidenehydrazonothiazolidin-4-one]",6.1
4,CC(C)=NN=C1NC(=O)C(C(C)C)N1 (stereo not shown) [compound 79],1.5

# From patent US5677322A, “Maillard reaction inhibitor” (Otsuka Pharmaceutical Co., Ltd., priority 1993, dated 1997)
